# Where a SMILES comes first, the peptide text is derived from it.
# Key:
# [1] = Sandwich ELISA quantification of topically instilled peptide in retinal extract; assay type: in vivo, Sprague-Dawley rats; settings: for roughly equivalent concentration of the peptide in the intracellular space: converted from ELISA value; for concentration of the Tat-μCL in the retina: 1 mM, 20 μl eye drops twice a day for 7 days, whole retina extract, sandwich ELISA, average ± SD, n = 6 eyes (6 rats)
# Procedure: (§1) Every effort was taken to minimize suffering. […] Animals were randomly allocated into experimental or control group.
# The amount of the peptide delivered to the retina was quantified by sandwich ELISA as per a previously reported method. In this procedure, we first added 50 μl of rabbit polyclonal anti-HIV1 tat antibody (1:2000, ab43014, Abcam) diluted with 0.05 M carbonate-bicarbonate buffer, pH 9.6, to 96-well immunoplates (Nunc, Roskilde, Denmark). After incubating the plates overnight at 4°C, the plates were washed three times with PBS-T, and then incubated with PBS-T containing 10% bovine serum albumin (BSA) at 37°C for 2 h. Subsequently, we then washed the plates with PBS and incubated the plates with 50 μl of retinal extract or standard peptide (100 amol, 1 fmol, 10 fmol, 100 fmol, 1 pmol, 10 pmol, 100 pmol and 1 nmol Tat-μCL) diluted with PBS-T containing 10% BSA at 37°C for 2 h. The retinal extract was obtained by sonication and gradual centrifugations at 600×g for 5 min, 4,500×g for 10 min, and 20,000×g for 20 min. The supernatant of the final centrifugation was used as the retinal extract. The protein concentration was measured by the Bradford’s assay with bovine serum albumin used as the standard. After washing the plate three times with PBS-T, the plates were incubated with 50 μl of mouse monoclonal anti-HIV1 tat antibody (1:1000, ab63957, Abcam) diluted with PBS-T containing 10% BSA at 37°C for 2 h. Subsequently, the plates were then washed three times with PBS-T and incubated with horse radish peroxidase (HRP)-conjugated rabbit anti-mouse IgG (1:1000) diluted with PBS-T containing 10% BSA at 37°C for 2 h. After incubation, the plates were washed three times with PBS-T and then once with distilled water. The reaction was performed by incubating the plates with 50 μl of citrate-phosphate buffer, pH 5.0, containing 0.04% o-phenylenediamine and 0.006% hydrogen peroxide. Color development was inhibited by the addition of 50 μl of 2.4 M sulfuric acid. Absorbance was determined at 492 nm.
# All statistical analyses were conducted using the SPSS version 22 software program (IBM, Armonk, NY). A one-way ANOVA was used to statistically compare the results between multiple groups. And then, as a post hoc analysis, a Dunnett T3 test was used to determine significance between the two groups. In the present study, P < 0.05 was considered statistically significant. Experiments were performed in triplicate to confirm the reproducibility.
# photoreceptors = settings: topical instillation of 1 mM eye drops, rhodopsin P23H transgenic rats; cited from earlier work
# Description: Every effort was taken to minimize suffering. Before the rat eyes ... || Calpains are members of the Ca^2+-activated cysteine proteinases and play important roles in various physiological and pathological pathways, such as regulating signal transductions, the cell cycle, cell adhesion, gene expression, and cell death.
# [2] = 1 mM eye drops twice a day for 7 days, adult female SD rats
# Procedure: We performed topical instillation (20 μl) of 1 mM Tat-μCL dissolved in a sterile saline solution (pH 7.4) twice a day (9 a.m. and 5 p.m.) for 7 days in both eyes of adult female SD rats (3-month-old, weighing 350–400g) without anesthesia. […] Topical application was performed in home cages using a micropipette tip with residual liquid around the eyelids wiped off by a cotton swab. Every effort was taken to minimize suffering. Before the rat eyes were enucleated, rats were euthanized with inhalation of carbon dioxide. […] At each time point, 6 rats were examined, with 3 out of the 6 right eyes used for the immunohistochemistry and all of the left eyes used for the biochemical analyses. As a control, 3 rats were topically administered sterile saline for bilaterally using the same methods described above. Animals were randomly allocated into experimental or control group. Every effort was taken to reduce the number of animal used.
# [3] = Immunohistochemical distribution of topically instilled peptide in and around the eye (anti-HIV1 tat antibody); assay type: in vivo, Sprague-Dawley rats; settings: for distribution of topically instilled peptide (immunoreactivity): n = 3 eyes (3 rats)
# Procedure: as §1
# Distribution of the peptide was analyzed by immune-positive reactions observed in and around the rat eyes. Immunohistochemical experiments were performed in line with our previously reported method. Briefly, rats were euthanized after the final eye drop instillation by inhalation of carbon dioxide at 1, 3 and 6 h. Eyes were immediately enucleated after euthanasia. For the immunohistochemistry, eyes were fixed in 4% paraformaldehyde in phosphate-buffered saline (PBS), pH 7.4, for 20 min at room temperature. Eyes were then placed in the fixative overnight at 4°C. Specimens were cryoprotected for 4 h in 10% then 20% sucrose in PBS, and then frozen in OCT compound. […] The sections were rinsed in PBS and blocked with 1% skim milk in PBS containing 0.05% Tween (PBS-T) for 2 h at room temperature. Sections were incubated overnight at 4°C with the mouse monoclonal antibody raised against HIV1 tat (ab63957, 1:200, Abcam, Cambridge, UK) diluted in 1% skim milk in PBS-T as the primary antibody. Sections were then washed with PBS-T and incubated with tetramethylrhodamine isothiocyanate isomer R (TRITC)-conjugated rabbit anti-mouse IgG (R0270, 1:200, Dako, Glostrup, Denmark) overnight at 4°C. Sections were washed with PBS-T and nuclei were counterstained with 4’ 6-diamidino-2-phenylindole (DAPI). Immunofluorescent images were obtained by laser confocal microscopy (FV1000-D; Olympus, Tokyo, Japan).
# [4] = rat, in vivo; cited from earlier work
Compound,roughly equivalent concentration of the peptide in the intracellular space ([1]; 1 h after final eye drops) [µM],concentration of the Tat-μCL in the retina ([1]; 1 h after final instillation) [pg/μg protein],roughly equivalent concentration of the peptide in the intracellular space ([1]; 3 h after final eye drops) [µM],concentration of the Tat-μCL in the retina ([1]; 3 h after final instillation) [pg/μg protein],roughly equivalent concentration of the peptide in the intracellular space ([1]; 6 h after final eye drops) [µM],concentration of the Tat-μCL in the retina ([1]; 6 h after final instillation) [pg/μg protein],time for which sufficient concentration (> IC50) is maintained in the rat retina ([1]; after final application of 1 mM eye drops),"half-life of Tat-μCL in the rat retina ([1]; estimated from ELISA results (Fig 4), topical 1 mM eye drops)",adverse effects (photoreceptors),adverse effects [2],"time after final application of most prominent immunoreactivity ([3]; anterior segment tissues, examined at 1 and 3 h) [h]",distribution of topically instilled peptide (immunoreactivity) ([3]; anterior segment),"time after final instillation of most prevalent immunoreactivity ([3]; optic disc area, examined at 1, 3 and 6 h) [h]",distribution of topically instilled peptide (immunoreactivity) ([3]; optic disc area),"time after final application of most abundant immunoreactivity ([3]; posterior segment, examined at 1, 3 and 6 h) [h]",distribution of topically instilled peptide (immunoreactivity) ([3]; posterior segment),time of peak in the retina after eye drop application [4] [h]
CC(C)C[C@H](NC(=O)[C@H](C)NC(=O)[C@H](CC(=O)O)NC(=O)[C@@H]1CCCN1C(=O)[C@H](CCC(N)=O)NC(=O)[C@@H]1CCCN1C(=O)[C@@H]1CCCN1C(=O)[C@H](CCCNC(=N)N)NC(=O)[C@H](CCCNC(=N)N)NC(=O)[C@H](CCCNC(=N)N)NC(=O)[C@H](CCC(N)=O)NC(=O)[C@H](CCCNC(=N)N)NC(=O)[C@H](CCCNC(=N)N)NC(=O)[C@H](CCCCN)NC(=O)[C@H](CCCCN)NC(=O)[C@H](CCCNC(=N)N)NC(=O)CN)C(=O)N[C@@H](CCCCN)C(=O)N[C@@H](CO)C(=O)N[C@@H](CCCNC(=N)N)C(=O)N[C@H](C(=O)N[C@@H](CC(C)C)C(=O)N[C@@H](CCCNC(=N)N)C(=O)O)[C@@H](C)O [Tat-μCL] (H-GRKKRRQRRRPPQPDALKSRTLR-OH),~4.48,15.3,~1.70,5.8,~0.29,1.0,at least 6 h,approximately 2.6 h,without causing any adverse effects,without any adverse effects,1,"diffusely distributed in the various tissues including the cornea, sclera, iris, ciliary body, choroid and retinal pigment epithelium (RPE)",1,"detected in the optic nerve, optic nerve sheath, optic disc, all layers of the retina, and the retrobulbar connective tissues",1,"diffusely distributed throughout the retina, including the photoreceptor outer segments, outer nuclear layer, inner nuclear layer, and ganglion cell layer",
nerve growth factor,,,,,,,,,,,,,,,,,6

# Reference: article PMC4479448, “Delivery of Topically Applied Calpain Inhibitory Peptide to the Posterior Segment of the Rat Eye” (PLoS ONE, 2015)
